PMC6268061, “Investigation of the Biological Properties of (Hetero)Aromatic Thiosemicarbazones” (Molecules, 2012)
≈ marks a conversion by molar mass, not a printed value. Like-named read-outs stand apart in the source and are kept apart here.

What was measured:
[1] = tested on: Trichosporon beigelii 1188; test: In vitro antifungal susceptibility, broth microdilution; type: cell-based; conditions: read-out: MIC (IC80) TB
Source text: The broth microdilution test was used for the assessment of the in vitro antifungal activity of the synthesized compounds against Candida albicans ATCC 44859 (CA), Candida tropicalis 156 (CT), Candida krusei ATCC 6258 (CK), Candida glabrata 20/I (CG), Trichosporon beigelii 1188 (TB), Aspergillus fumigatus 231 (AF), Absidia corymbifera 272 (AC), and Trichophyton mentagrophytes 445 (TM). Fluconazole (FLU) was used as the standard since it is a clinically used antimycotic drug. The procedure was performed using a twofold dilution of the compounds in RPMI 1640 (Sevapharma a.s., Prague, Czech Republic) buffered to pH 7.0 with […] of 3-morpholino-propane-1-sulfonic acid (MOPS, Sigma, Prague, Czech Republic). The final concentrations of the compounds ranged from 500 to 0.975 μmol/L. Drug-free controls were included. The determination of minimum inhibitory concentration (MIC) was performed according to the Clinical and Laboratory Standards Institute (CLSI, formerly NCCLS) reference protocol M27-A2 for yeasts (IC80 value) and M38-A for moulds (IC50 value). IC80 and IC50 were defined as an 80% resp. 50% or greater reduction in growth in comparison with the control. The values of MICs were determined after 24 and 48 h of static incubation at 35 °C. The final MICs for T. mentagrophytes, were determined after 72 and 120 h of incubation.

Absidia corymbifera 272 = test: as above; type: cell-based; conditions: read-out: MIC (IC50) AC
[2] = tested on: photosynthetic electron transport (PET) in spinach chloroplasts; test: Inhibition of photosynthetic electron transport (PET) in spinach chloroplasts; type: biochemical, Spinacia oleracea L.; conditions: DCPIP photoreduction
Procedure: Chloroplasts were prepared from spinach (Spinacia oleracea L.) according to Masarovicova and Kralova. The inhibition of the photosynthetic electron transport (PET) in spinach chloroplasts was determined spectrophotometrically (Genesys 6, Thermo Fisher Scientific, Waltham, MA, USA) using an artificial electron acceptor 2,6-dichlorophenol-indophenol (DCIPP) according to Kralova et al. and the rate of photosynthetic electron transport was monitored as a photoreduction of DCPIP. The measurements were carried out in a phosphate buffer (0.02 mol/L, pH 7.2) containing sucrose (0.4 mol/L), MgCl2 (0.005 mol/L) and NaCl (0.015 mol/L). The chlorophyll content was 30 mg/L in these experiments and the samples were irradiated (~100 W/m^2 with 10 cm distance) with a halogen lamp (250 W) using a 4 cm water filter to prevent warming of the samples (suspension temperature 22 °C). The compounds studied were dissolved in DMSO due to their limited water solubility. […] The inhibitory efficiency of the compounds studied was expressed by IC50 values, i.e., by the molar concentration of the compounds that caused a 50% decrease in the oxygen evolution rate relative to the untreated control.

[3] = tested on: Aspergillus fumigatus 231; test: In vitro antifungal susceptibility, broth microdilution; type: cell-based; conditions: read-out: MIC (IC50) AF
Candida glabrata 20/I = test: as above; type: cell-based; conditions: Nakaseomyces glabratus, read-out: MIC (IC80) CG
[4] = tested on: HCT-116 human colon cancer cells (p53 wild type); design: method as in PMID 22858101; conditions: footnote 3: anticancer activity described elsewhere ref [34],[44]; cited from earlier work
[5] = tested on: Trichophyton mentagrophytes 445; test: In vitro antifungal susceptibility, broth microdilution; type: cell-based; conditions: read-out: MIC (IC50) TM
Candida krusei ATCC 6258 = test: as above; type: cell-based; conditions: Pichia kudriavzevii, read-out: MIC (IC80) CK
[6] = Lipophilicity determination using RP-HPLC (capacity factor, log k); type: physicochemical; conditions: C18, MeOH 55%/H2O 45%
Source text: Reversed phase high performance liquid chromatography (RP-HPLC) methods have become popular and are widely used for lipophilicity measurements. The general procedure is the measurement of the directly accessible retention time under isocratic conditions using varying amounts of methanol as an organic modifier in the mobile phase using RP columns and calculating the logarithm of the capacity factors (log k). Log k is the logarithm of the capacity factors in chromatographic approaches that is related to the partitioning of a compound between a mobile and a (pseudo-)stationary phase. Log k is used as the lipophilicity index converted to log P scale.
A Waters Alliance 2695 XE HPLC separation module and a Waters Photodiode Array Detector 2996 (Waters Corp., Milford, MA, USA) were used. A Symmetry® C18 5 μm, 4.6 × 250 mm, Part No. WAT054275 (Waters Corp.) chromatographic column was used. The HPLC separation process was monitored using Empower™ 2 Chromatography Data Software, Waters 2009 (Waters Corp.). A mixture of MeOH p.a. (55%) and H2O-HPLC-Mili-Q Grade (45%) was used as a mobile phase. The total flow of the column was 0.9 mL/min, injection volume 30 μL, column temperature 30 °C and sample temperature 10 °C. A detection wavelength of 210 nm was chosen. A KI methanolic solution was used for the determination of dead time (tD). Retention times (tR) were measured in minutes. The capacity factors k were calculated using the Empower™ 2 Chromatography Data Software according to the formula k = (tR − tD)/tD, where tR is the retention time of the solute, whereas tD denotes the dead time obtained using an unretained analyte. Log k, calculated from the capacity factor k, is used as the lipophilicity index converted to log P scale.

[7] = tested on: Candida albicans ATCC 44859; test: In vitro antifungal susceptibility, broth microdilution; type: cell-based; conditions: read-out: MIC (IC80) CA
Candida tropicalis 156 = test: as above; type: cell-based; conditions: read-out: MIC (IC80) CT
[8] = Trichosporon beigelii, 1188, 24 h
[9] = Trichosporon beigelii, 1188, 48 h
[10] = Lichtheimia corymbifera, 272, 24 h
[11] = Lichtheimia corymbifera, 272, 48 h
[12] = Aspergillus fumigatus, 231, 24 h
[13] = Aspergillus fumigatus, 231, 48 h
[14] = Trichophyton mentagrophytes, 445, 72 h
[15] = Trichophyton mentagrophytes, 445, 120 h
[16] = Trichosporon beigelii, 1188, 24 h and 48 h, only one value presented (inactive)
[17] = Lichtheimia corymbifera, 272, 24 h and 48 h, only one value presented (inactive)
[18] = Aspergillus fumigatus, 231, 24 h and 48 h, only one value presented (inactive)
[19] = 24 h and 48 h, only one value presented (inactive)
[20] = Trichophyton mentagrophytes, 445, 72 h and 120 h, only one value presented (inactive)
[21] = ATCC6258, 24 h and 48 h, only one value presented (inactive)
[22] = ATCC44859, 24 h and 48 h, only one value presented (inactive)
[23] = Candida tropicalis, 156, 24 h and 48 h, only one value presented (inactive)

| SMILES | MIC [1, 8] | MIC [1, 9] | IC50 (Absidia corymbifera 272; [10]) | IC50 (Absidia corymbifera 272; [11]) | IC50 [2] | IC50 [3, 12] | IC50 [3, 13] | MIC (Candida glabrata 20/I; 24 h) | MIC (Candida glabrata 20/I; 48 h) | IC50 [4] | IC50 [5, 14] | IC50 [5, 15] | MIC (Candida krusei ATCC 6258; ATCC6258, 24 h) | MIC (Candida krusei ATCC 6258; ATCC6258, 48 h) | log k [6] | MIC ([7]; ATCC44859, 24 h) | MIC ([7]; ATCC44859, 48 h) | MIC (Candida tropicalis 156; Candida tropicalis, 156, 24 h) | MIC (Candida tropicalis 156; Candida tropicalis, 156, 48 h) | MIC [1, 16] | also measured |
| --- | --- | --- | --- | --- | --- | --- | --- | --- | --- | --- | --- | --- | --- | --- | --- | --- | --- | --- | --- | --- | --- |
| CN(C)C(=S)NN=Cc1c(O)ccc2cccnc12 [Compound 4j] | 125 µM (≈ 34.3 µg/mL) | > 250 µM | > 250 µM | > 250 µM | 520 µM | > 250 µM | > 250 µM | 125 µM (≈ 34.3 µg/mL) | 125 µM (≈ 34.3 µg/mL) | 20.8 ± 5.34 µM | 125 µM | 125 µM | > 250 µM | > 250 µM | 0.5831 | 125 µM (≈ 34.3 µg/mL) | > 250 µM | > 250 µM | > 250 µM | – | – |
| Oc1ccc2cccnc2c1C=NNC(=S)Nc1ccccc1 [Compound 4l] | 15.6 µM (≈ 5.04 µg/mL) | 125 µM (≈ 40.3 µg/mL) | 15.6 µM | 62.5 µM | – | 125 µM | 125 µM | 15.6 µM (≈ 5.04 µg/mL) | 31.2 µM (≈ 10.1 µg/mL) | 16.3 ± 1.69 µM | 15.6 µM | 15.6 µM | 31.2 µM (≈ 10.1 µg/mL) | 125 µM (≈ 40.3 µg/mL) | 0.6748 | 31.2 µM (≈ 10.1 µg/mL) | 62.5 µM (≈ 20.1 µg/mL) | 125 µM (≈ 40.3 µg/mL) | 125 µM (≈ 40.3 µg/mL) | – | – |
| Oc1cccc2ccc(C=NNC(=S)Nc3ccccc3)nc12 [Compound 4h] | > 125 µM | > 125 µM | > 125 µM | > 125 µM | – | > 125 µM | > 125 µM | > 125 µM | > 125 µM | 25 ± 4.29 µM | > 125 µM | > 125 µM | > 125 µM | > 125 µM | 0.7548 | > 125 µM | > 125 µM | > 125 µM | > 125 µM | – | – |
| CN(C)C(=S)NN/C=C/c1ccc2ccccc2n1 [Compound 4b, (E)-2-(Quinolin-2-ylvinyl)-N,N-dimethylhydrazinecarbothioamide] | 1.95 µM (≈ 0.531 µg/mL) | 1.95 µM (≈ 0.531 µg/mL) | 3.9 µM | 3.9 µM | 1370 µM | 3.9 µM | 3.9 µM | 1.95 µM (≈ 0.531 µg/mL) | 1.95 µM (≈ 0.531 µg/mL) | 4.86 ± 1.48 µM | 3.9 µM | 3.9 µM | 3.9 µM (≈ 1.06 µg/mL) | 3.9 µM (≈ 1.06 µg/mL) | 0.6184 | 1.95 µM (≈ 0.531 µg/mL) | 1.95 µM (≈ 0.531 µg/mL) | 1.95 µM (≈ 0.531 µg/mL) | 7.81 µM (≈ 2.13 µg/mL) | – | – |
| CCNC(=S)N/N=C/c1ccc(Br)cc1 [Compound 3n, (E)-2-(4-Bromobenzylidene)-N-ethylhydrazinecarbothioamide] | – | – | – | – | – | – | – | – | – | > 60 µM | – | – | – | – | 0.7568 | – | – | – | – | > 500 µM | IC50 (Absidia corymbifera 272; [17]): > 500 µM; IC50 [3, 18]: > 500 µM; MIC (Candida glabrata 20/I; [19]): > 500 µM; IC50 [5, 20]: > 500 µM; MIC (Candida krusei ATCC 6258; [21]): > 500 µM; MIC [7, 22]: > 500 µM; MIC (Candida tropicalis 156; [23]): > 500 µM |
| CNC(=S)NN=Cc1ccc2cccc(O)c2n1 [Compound 4e] | – | – | – | – | 302 µM | – | – | – | – | 1.71 ± 0.34 µM | – | – | – | – | 0.6236 | – | – | – | – | > 125 µM | IC50 (Absidia corymbifera 272; [17]): > 125 µM; IC50 [3, 18]: > 125 µM; MIC (Candida glabrata 20/I; [19]): > 125 µM; IC50 [5, 20]: > 125 µM; MIC (Candida krusei ATCC 6258; [21]): > 125 µM; MIC [7, 22]: > 125 µM; MIC (Candida tropicalis 156; [23]): > 125 µM |
